{"source": "patent US11229618B2", "about": "(Amarin Pharmaceuticals Ireland Limited, priority 2012, dated 2022)", "key": {"[1]": {"test_system": "fasting TG levels", "experiment": "ANCHOR: fasting TG lowering and LDL-C", "assay_type": "in vivo, human", "settings": "for median percent reductions in TG from baseline, 4 g/day compared with 2 g/day: 12 weeks", "experimental": "A multi-center, placebo-controlled, randomized, double-blind, 12-week study was performed to evaluate the efficacy and safety of >96% E-EPA in patients with fasting triglyceride levels≥200 mg/dl and <500 mg/dl despite statin therapy (the mean of two qualifying entry values needed to be ≥185 mg/dl and at least one of the values needed to be ≥200 mg/dl). The primary objective of the study was to determine the efficacy of >96% E-EPA 2 g daily and 4 g daily, compared to placebo, in lowering fasting TG levels in patients with high risk for cardiovascular disease and with fasting TG levels≥200 mg/dL and <500 mg/dL, despite treatment to LDL-C goal on statin therapy.\nThe primary efficacy variable for the double-blind treatment period was percent change in TG from baseline to Week 12 endpoint. The secondary efficacy variables for the double-blind treatment period included the following: • Percent changes in total cholesterol (TC), high-density lipoprotein cholesterol (HDL-C), LDL-C, calculated non-HDL-C, and very low-density lipoprotein cholesterol (VLDL-C) from baseline to Week 12 endpoint; • Percent change in very low-density lipoprotein TG from baseline to Week 12; • Percent changes in apolipoprotein A-I (apo A-I), apolipoprotein B (apo B), and apo A-I/apo B ratio from baseline to Week 12; • Percent changes in lipoprotein(a) from baseline to Week 12; • Percent changes in LDL particle number and size, measured by nuclear magnetic resonance, from baseline to Week 12; • Percent change in remnant-like particle cholesterol from baseline to Week 12; • Percent change in oxidized LDL from baseline to Week 12; • Changes in FPG and HbA1c from baseline to Week 12; • Change in insulin resistance, as assessed by the homeostasis model index insulin resistance, from baseline to Week 12; • Percent change in lipoprotein associated phospholipase A2 (Lp-PLA2) from baseline to Week 12; • Change in intracellular adhesion molecule-1 from baseline to Week 12; • Change in interleukin-2 from baseline to Week 12; • Change in plasminogen activator inhibitor-1 from baseline to Week 12. Note: this parameter will only be collected at sites with proper storage conditions; • Change in hsCRP from baseline to Week 12; and • Change in plasma concentration and red blood cell membrane content of fatty acid from baseline to Week 12 including EPA, docosapentaenoic acid (DPA), docosahexaenoic acid (DHA), arachidonic acid (AA), dihomo-γ-linolenic acid (DGLA), the ratio of EPA/AA, ratio of oleic acid/stearic acid (OA/SA), and the ratio of total omega-3 acids over total omega-6 acids.\nThe primary efficacy analysis was performed using a 2-way analysis of covariance (ANCOVA) model with treatment as a factor and baseline TG value as a covariate. […]"}, "[2]": {"test_system": "fasting TG levels", "experiment": "MARINE: fasting TG lowering and LDL-C", "assay_type": "in vivo, human", "settings": "for median percent reductions in TG from baseline, 4 g/day compared with 2 g/day: 12 weeks", "experimental": "A multi-center, placebo-controlled randomized, double-blind, 12-week study with an open-label extension is performed to evaluate the efficacy and safety of AMR101 in patients with fasting triglyceride levels≥500 mg/dL. The primary objective of the study is to determine the efficacy of AMR101 2 g daily and 4 g daily, compared to placebo, in lowering fasting TG levels in patients with fasting TG levels≥500 mg/dL and ≤1500 mg/dL (≥5.65 mmol/L and ≤16.94 mmol/L).\nThe primary efficacy variable for the double-blind treatment period is percent change in TG from baseline to Week 12 endpoint. The secondary efficacy variables for the double-blind treatment period include the following: • Percent changes in total cholesterol (TC), high-density lipoprotein cholesterol (HDL-C), calculated low-density lipoprotein cholesterol (LDL-C), calculated non-high-density lipoprotein cholesterol (non-HDL-C), and very low-density lipoprotein cholesterol (VLDL-C) from baseline to Week 12 endpoint; • Percent change in very low-density lipoprotein TG from baseline to Week 12; • Percent changes in apolipoprotein A-I (apo A-I), apolipoprotein B (apo B), and apo A-I/apo B ratio from baseline to Week 12; • Percent changes in lipoprotein(a) from baseline to Week 12 (selected sites only); • Percent changes in LDL particle number and size, measured by nuclear magnetic resonance, from baseline to Week 12 (selected sites only); • Percent change in remnant-like particle cholesterol from baseline to Week 12 (selected sites only); • Percent change in oxidized LDL from baseline to Week 12 (selected sites only); • Changes in FPG and HbA1c from baseline to Week 12; • Change in insulin resistance, as assessed by the homeostasis model index insulin resistance, from baseline to Week 12; • Percent change in lipoprotein associated phospholipase A2 from baseline to Week 12 (selected sites only); • Change in intracellular adhesion molecule-1 from baseline to Week 12 (selected sites only); • Change in interleukin-6 from baseline to Week 12 (selected sites only); • Change in plasminogen activator inhibitor-1 from baseline to Week 12 (selected sites only); • Change in hsCRP from baseline to Week 12 (selected sites only); • Change in serum phospholipid EPA content from baseline to Week 12; • Change in red blood cell membrane EPA content from baseline to Week 12; and • Change in serum phospholipid and red blood cell membrane content in the following fatty acids from baseline to Week 12: docosapentaenoic acid, docosahexaenoic acid, arachidonic acid, palmitic acid, stearic acid, and oleic acid.\nMARINE and ANCHOR were 12-week, phase 3, double-blind studies that randomized patients to IPE 4 g/day, 2 g/day, or placebo. […]"}}}
{"smiles": "CC/C=C\\C/C=C\\C/C=C\\C/C=C\\C/C=C\\CCCC(=O)OCC", "note": "[IPE, all-cis eicosa-5,8,11,14,17-pentaenoic acid ethyl ester]", "values": [{"measurement": "effect on LDL-C", "setting": "[1]", "value": "without raising LDL-C"}, {"measurement": "median percent reductions in TG from baseline, 4 g/day compared with 2 g/day", "setting": "[1]", "value": "higher with IPE 4 g/day than with 2 g/day"}, {"measurement": "median percent reductions in TG from baseline, 4 g/day compared with 2 g/day", "setting": "[1]; listed as EPA", "value": "higher for subjects administered about 4 grams of EPA per day"}, {"measurement": "effect on TG levels", "setting": "[1]; patients with high TG levels on statin therapy", "value": "significantly reduced TG levels"}, {"measurement": "effect on LDL-C", "setting": "[2]", "value": "without raising LDL-C"}, {"measurement": "median percent reductions in TG from baseline, 4 g/day compared with 2 g/day", "setting": "[2]", "value": "higher with IPE 4 g/day than with 2 g/day"}, {"measurement": "median percent reductions in TG from baseline, 4 g/day compared with 2 g/day", "setting": "[2]; listed as EPA", "value": "higher for subjects administered about 4 grams of EPA per day"}, {"measurement": "effect on TG levels", "setting": "[2]; patients with very high TG levels", "value": "significantly reduced TG levels"}]}
